Laboratory results: article PMC9506414, “Novel 2,6,9-Trisubstituted Purines as Potent CDK Inhibitors Alleviating Trastuzumab-Resistance of HER2-Positive Breast Cancers” (Pharmaceuticals, 2022)
Read-outs that look alike come from different tables or passages of the source.

Legend:
[1] = target: T1, CYP1A2 (Homo sapiens, UniProt P05177); test: CYP inhibition; format: in vitro ADME
T1 sequence (P05177 1-516): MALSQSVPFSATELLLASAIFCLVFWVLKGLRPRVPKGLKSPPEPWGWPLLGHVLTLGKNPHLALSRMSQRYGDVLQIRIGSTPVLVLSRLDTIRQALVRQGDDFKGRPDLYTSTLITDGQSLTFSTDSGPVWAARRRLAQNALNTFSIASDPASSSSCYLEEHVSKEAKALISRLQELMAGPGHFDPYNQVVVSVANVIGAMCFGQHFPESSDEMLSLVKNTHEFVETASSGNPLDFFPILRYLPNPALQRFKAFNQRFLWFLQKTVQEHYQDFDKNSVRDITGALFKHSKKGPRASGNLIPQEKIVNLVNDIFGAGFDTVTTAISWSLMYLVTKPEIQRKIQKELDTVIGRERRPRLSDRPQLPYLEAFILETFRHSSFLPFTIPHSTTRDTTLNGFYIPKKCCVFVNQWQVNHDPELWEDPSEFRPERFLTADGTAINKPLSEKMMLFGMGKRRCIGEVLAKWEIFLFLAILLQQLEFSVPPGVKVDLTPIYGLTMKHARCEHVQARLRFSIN
Method: Table 6 In vitro liver metabolic stability and activity against CYPs of potent analogues. | column: CYP % Activity at 10 μM / 1A2

[2] = target: CDK12/CyclinK (Homo sapiens, UniProt Q9NYV4); test: In vitro CDK12/cyclinK kinase assay; format: biochemical; set-up: purchased Reaction Biology Corp. (CRO that ran the assay)
Chain of CDK12/CyclinK (Q9NYV4 whole entry): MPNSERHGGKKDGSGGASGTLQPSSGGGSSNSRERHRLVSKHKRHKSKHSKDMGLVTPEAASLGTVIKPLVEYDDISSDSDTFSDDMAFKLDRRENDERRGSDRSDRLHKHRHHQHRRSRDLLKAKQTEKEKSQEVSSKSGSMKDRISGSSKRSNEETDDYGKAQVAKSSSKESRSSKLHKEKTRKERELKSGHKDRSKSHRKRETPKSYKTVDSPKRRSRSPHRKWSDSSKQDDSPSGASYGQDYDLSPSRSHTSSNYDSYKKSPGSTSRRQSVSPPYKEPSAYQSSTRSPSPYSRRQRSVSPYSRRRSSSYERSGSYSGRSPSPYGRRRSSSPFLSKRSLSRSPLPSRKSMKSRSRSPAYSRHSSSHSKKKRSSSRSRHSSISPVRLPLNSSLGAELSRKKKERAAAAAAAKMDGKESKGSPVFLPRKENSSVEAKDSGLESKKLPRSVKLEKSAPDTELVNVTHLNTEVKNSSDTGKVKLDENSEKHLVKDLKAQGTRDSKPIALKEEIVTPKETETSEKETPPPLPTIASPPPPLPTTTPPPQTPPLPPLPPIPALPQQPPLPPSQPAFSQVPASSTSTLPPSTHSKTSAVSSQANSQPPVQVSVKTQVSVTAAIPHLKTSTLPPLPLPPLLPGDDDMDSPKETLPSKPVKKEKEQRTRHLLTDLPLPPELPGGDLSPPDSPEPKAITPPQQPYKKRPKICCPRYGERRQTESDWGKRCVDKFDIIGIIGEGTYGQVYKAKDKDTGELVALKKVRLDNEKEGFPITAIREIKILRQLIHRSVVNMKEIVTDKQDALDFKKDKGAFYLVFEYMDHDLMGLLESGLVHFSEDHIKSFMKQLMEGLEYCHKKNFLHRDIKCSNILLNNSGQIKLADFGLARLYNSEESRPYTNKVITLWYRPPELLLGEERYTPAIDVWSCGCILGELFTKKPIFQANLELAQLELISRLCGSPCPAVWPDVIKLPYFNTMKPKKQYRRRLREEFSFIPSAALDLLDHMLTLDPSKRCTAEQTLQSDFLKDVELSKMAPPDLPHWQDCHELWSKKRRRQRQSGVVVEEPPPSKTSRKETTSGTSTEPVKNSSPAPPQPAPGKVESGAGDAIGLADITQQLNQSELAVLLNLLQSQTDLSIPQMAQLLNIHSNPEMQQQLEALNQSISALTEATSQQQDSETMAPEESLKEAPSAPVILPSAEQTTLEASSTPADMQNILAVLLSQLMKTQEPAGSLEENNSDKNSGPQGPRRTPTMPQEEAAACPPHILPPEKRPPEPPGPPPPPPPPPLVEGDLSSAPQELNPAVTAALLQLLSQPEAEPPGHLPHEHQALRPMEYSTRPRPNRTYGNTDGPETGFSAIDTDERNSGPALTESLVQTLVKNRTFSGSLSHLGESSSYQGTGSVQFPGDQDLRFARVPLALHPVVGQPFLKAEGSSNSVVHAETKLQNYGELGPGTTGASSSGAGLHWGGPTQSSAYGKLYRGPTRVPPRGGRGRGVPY
Chain of CDK12/CyclinK (O75909 whole entry partner): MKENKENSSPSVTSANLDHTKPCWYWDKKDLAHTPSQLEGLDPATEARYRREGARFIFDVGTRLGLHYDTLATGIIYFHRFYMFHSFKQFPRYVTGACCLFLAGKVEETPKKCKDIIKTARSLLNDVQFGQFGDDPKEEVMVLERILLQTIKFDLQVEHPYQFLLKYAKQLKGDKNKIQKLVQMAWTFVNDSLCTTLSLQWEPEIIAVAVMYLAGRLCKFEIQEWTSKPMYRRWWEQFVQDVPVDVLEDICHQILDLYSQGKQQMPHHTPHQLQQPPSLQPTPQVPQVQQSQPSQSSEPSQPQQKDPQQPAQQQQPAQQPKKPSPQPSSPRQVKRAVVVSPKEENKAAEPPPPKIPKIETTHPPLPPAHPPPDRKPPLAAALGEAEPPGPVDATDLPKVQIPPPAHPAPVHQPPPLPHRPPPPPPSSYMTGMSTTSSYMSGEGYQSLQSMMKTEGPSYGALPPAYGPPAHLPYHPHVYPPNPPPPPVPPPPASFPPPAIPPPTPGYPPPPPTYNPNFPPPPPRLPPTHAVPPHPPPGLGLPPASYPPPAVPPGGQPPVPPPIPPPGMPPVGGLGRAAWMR
Method: In vitro CDK12/cyclinK assays for all compounds and in vitro kinome-wide inhibition profiling of 30d at 10 μM were performed by a CRO company (Reaction Biology Corp., San Diego, CA, USA).

[3] = target: CYP2C9 (Homo sapiens, UniProt P11712); test: CYP inhibition; format: in vitro ADME
Chain of CYP2C9 (P11712 whole entry): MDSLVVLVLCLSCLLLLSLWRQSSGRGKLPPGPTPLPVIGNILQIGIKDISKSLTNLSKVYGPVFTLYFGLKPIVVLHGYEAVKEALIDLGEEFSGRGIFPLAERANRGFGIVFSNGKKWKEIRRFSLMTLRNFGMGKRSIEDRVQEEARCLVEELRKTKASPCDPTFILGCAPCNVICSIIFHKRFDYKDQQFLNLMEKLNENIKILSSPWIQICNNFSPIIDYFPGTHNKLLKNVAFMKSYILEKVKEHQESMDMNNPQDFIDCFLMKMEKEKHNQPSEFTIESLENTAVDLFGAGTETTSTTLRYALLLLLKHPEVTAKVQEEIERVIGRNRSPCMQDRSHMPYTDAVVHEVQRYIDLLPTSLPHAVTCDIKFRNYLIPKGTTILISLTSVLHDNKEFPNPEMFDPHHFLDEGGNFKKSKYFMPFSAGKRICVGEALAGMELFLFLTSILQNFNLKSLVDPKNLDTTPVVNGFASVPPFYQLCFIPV
Method: Table 6 In vitro liver metabolic stability and activity against CYPs of potent analogues. | column: CYP % Activity at 10 μM / 2C9

[4] = target: CYP2D6 (Homo sapiens, UniProt P10635); test: CYP inhibition; format: in vitro ADME
Chain of CYP2D6 (P10635 whole entry): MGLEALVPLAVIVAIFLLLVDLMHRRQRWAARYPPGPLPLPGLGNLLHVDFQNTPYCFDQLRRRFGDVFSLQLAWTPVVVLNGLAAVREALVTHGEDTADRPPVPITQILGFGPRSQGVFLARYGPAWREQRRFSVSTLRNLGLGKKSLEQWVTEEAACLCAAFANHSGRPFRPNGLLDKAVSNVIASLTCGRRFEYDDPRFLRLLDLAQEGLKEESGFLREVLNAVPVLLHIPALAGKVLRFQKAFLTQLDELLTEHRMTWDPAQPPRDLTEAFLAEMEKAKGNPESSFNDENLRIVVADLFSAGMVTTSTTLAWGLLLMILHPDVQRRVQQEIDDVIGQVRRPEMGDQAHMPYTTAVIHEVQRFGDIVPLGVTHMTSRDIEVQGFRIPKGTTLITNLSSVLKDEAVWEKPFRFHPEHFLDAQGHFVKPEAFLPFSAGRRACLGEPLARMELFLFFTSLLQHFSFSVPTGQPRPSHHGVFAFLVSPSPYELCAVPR
Method: Table 6 In vitro liver metabolic stability and activity against CYPs of potent analogues. | column: CYP % Activity at 10 μM / 2D6

[5] = target: CYP3A4 (Homo sapiens, UniProt P08684); test: CYP inhibition; format: in vitro ADME
Chain of CYP3A4 (P08684 whole entry): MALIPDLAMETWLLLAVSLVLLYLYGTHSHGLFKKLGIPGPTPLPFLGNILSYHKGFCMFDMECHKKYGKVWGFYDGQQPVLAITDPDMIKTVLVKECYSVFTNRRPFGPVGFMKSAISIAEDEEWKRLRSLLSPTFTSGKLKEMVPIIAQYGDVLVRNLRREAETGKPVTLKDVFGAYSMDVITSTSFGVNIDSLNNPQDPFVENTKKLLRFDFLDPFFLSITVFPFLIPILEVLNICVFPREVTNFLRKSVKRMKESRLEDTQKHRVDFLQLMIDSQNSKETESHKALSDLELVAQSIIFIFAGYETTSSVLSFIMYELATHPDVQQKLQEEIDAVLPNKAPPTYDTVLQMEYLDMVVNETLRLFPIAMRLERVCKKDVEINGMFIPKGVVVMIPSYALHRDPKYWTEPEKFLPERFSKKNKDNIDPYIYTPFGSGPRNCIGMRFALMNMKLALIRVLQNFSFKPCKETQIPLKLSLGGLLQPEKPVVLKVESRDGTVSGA
Method: Table 6 In vitro liver metabolic stability and activity against CYPs of potent analogues. | column: CYP % Activity at 10 μM / 3A4

[6] = target: CYP2C19 (Homo sapiens, UniProt P33261); test: CYP inhibition; format: in vitro ADME
Chain of CYP2C19 (P33261 whole entry): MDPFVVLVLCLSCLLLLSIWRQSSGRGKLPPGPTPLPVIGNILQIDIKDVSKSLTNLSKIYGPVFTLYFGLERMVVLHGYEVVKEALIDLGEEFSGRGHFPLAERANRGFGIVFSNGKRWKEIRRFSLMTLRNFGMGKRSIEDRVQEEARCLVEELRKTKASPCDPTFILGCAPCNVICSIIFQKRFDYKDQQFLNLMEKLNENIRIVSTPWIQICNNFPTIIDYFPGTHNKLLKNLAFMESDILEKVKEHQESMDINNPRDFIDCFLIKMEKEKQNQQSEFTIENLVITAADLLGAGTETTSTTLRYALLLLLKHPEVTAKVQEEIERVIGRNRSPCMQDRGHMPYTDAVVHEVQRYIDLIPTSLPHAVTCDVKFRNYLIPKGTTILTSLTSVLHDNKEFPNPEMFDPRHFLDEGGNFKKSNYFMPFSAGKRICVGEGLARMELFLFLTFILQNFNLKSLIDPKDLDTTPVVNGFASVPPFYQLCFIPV
Method: Table 6 In vitro liver metabolic stability and activity against CYPs of potent analogues. | column: CYP % Activity at 10 μM / 2C19

[7] = In vitro liver microsomal stability; format: in vitro ADME; details: liver microsomes, pH 7.4, 30 m at 37 °C with NADPH regeneration system
Method: Each compound (final 1 μM, duplicated) was added to each 0.1 M PBS solution (pH 7.4) containing liver microsome of three different species (human, dog, mouse). After a brief (5 m) incubation at 37 °C, the NADPH regeneration system (Promega Corp., Madison, WI, USA) was added, then the mixture was incubated at 37 °C for 30 m. The reaction was terminated by adding acetonitrile containing an internal standard (chlorpropamide), then the mixture was centrifuged at 15,000 rpm, 4 °C for 5 m. The supernatant solution was injected to LC/MS/MS system (TSQ Vantage Triple-Stage Quadrupole Mass Spectrometer, ThermoFisher Scientific, Waltham, MA, USA). The remaining substrates were analyzed with Xcalibur 4.4 s/w using an MRM (multiple reaction monitoring) quantitation mode.

[8] = system: SK-Br3 cells; test: Antiproliferation assay (Cell-titer Glo, 72 h); format: cell-based; details: Homo sapiens, SK-BR-3; 72 h; means and standard deviations from three independent assays; read-out: SK-Br3 (GI50/μM)
Method: (§1) Breast-cancer cell lines (SK-Br3, HCC-1954) were purchased from Korea Cell Line Bank (Seoul, Korea) and were cultured in RPMI medium supplemented with 10% FBS and penicillin/streptomycin (Welgene, Seoul, Korea). All cell lines were maintained at 37 °C in a cell incubator in the presence of 5% CO2.
(§2) Breast-cancer cells in culture media (100 μL volume/well, 5000 SK-Br3 cells/well, 1000 HCC-1954 cells/well) were seeded in tissue culture-treated 96-well plates, and incubated at a cell incubator for 24 h. Serially diluted compounds (3-fold, 10 point from 10 mM, duplicated) were pre-plated and 500 nL of compound solutions were pin-transferred to the cells in the assay plates using pintool system (JANUS liquid handler, PerkinElmer, Waltham, MA, USA) and incubated at a cell incubator for 72 h. Cell-titer Glo^TM reagent (50 μL, Promega Corp., Madison, WI, USA) was added to each well, and the luminescence signal was read using an Envision^TM plate reader (PerkinElmer, Waltham, MA, USA). The titration curve fitting and IC50 values were generated using Prism 7.0 s/w (GraphPad, San Diego, CA, USA).

[9] = system: HCC1954 cells; test: Antiproliferation assay (Cell-titer Glo, 72 h); format: cell-based; details: Homo sapiens, 72 h, means and standard deviations from three independent assays, read-out: HCC1954 (GI50/μM)
Method: as §1, §2

[10] = Table 5, means and standard deviations from three independent assays, read-out: CDK12/CyclinK (IC50/μM)

CYP % Activity at 10 μM 1A2 [1] [%]	IC50 [2, 10] [µM]	IC50 ([2]; read-out: CDK12/cyclinK IC50) [µM]	CYP % Activity at 10 μM 2C9 [3] [%]	CYP % Activity at 10 μM 2D6 [4] [%]	CYP % Activity at 10 μM 3A4 [5] [%]	CYP % Activity at 10 μM 2C19 [6] [%]	remaining at 30 min, 1 μM ([7]; dog) [%]	remaining at 30 min, 1 μM ([7]; human) [%]	remaining at 30 min, 1 μM ([7]; mouse) [%]	GI50 [8] [µM]	GI50 [9] [µM]	Compound
74.9	0.028 ± 0.008	< 0.03	82.9	85.7	72.4	75.4	53.6	40.6	45	0.09 ± 0.008	0.08 ± 0.007	CCn1cnc2c(NCc3ccc(-c4ccnc(C)c4)nc3)nc(-c3cnc(N)nc3)nc21 [Compound 30b, 2-(2-Aminopyrimidin-5-yl)-9-ethyl-N-((2′-methyl-[2,4′-bipyridin]-5-yl)methyl)-9H-purin-6-amine]
59.3	0.029 ± 0.015	< 0.03	73.0	89.6	38.9	76.8	45.1	32.2	35.3	0.136 ± 0.016	0.104 ± 0.003	CCn1cnc2c(NCc3ccc(-c4ccnc(C)c4)nc3)nc(-c3ccc(N)nc3)nc21 [Compound 30a, 2-(6-Aminopyridin-3-yl)-9-ethyl-N-((2′-methyl-[2,4′-bipyridin]-5-yl)methyl)-9H-purin-6-amine]
68.6	0.064 ± 0.012		67.5	88.8	31.8	73.9	79.5	27.3	34	0.189 ± 0.057	0.157 ± 0.022	CCn1cnc2c(NCc3ccc(-c4ccnc(C)c4)nc3)nc(-c3cncnc3)nc21 [Compound 30c, 9-Ethyl-N-((2′-methyl-[2,4′-bipyridin]-5-yl)methyl)-2-(pyrimidin-5-yl)-9H-purin-6-amine]
